Results on one compound are retold here after paper PMC10146186, “Modulation of the Cytotoxic Properties of Pd(II) Complexes Based on Functionalized Carboxamides Featuring Labile Phosphoryl Coordination Sites” (Pharmaceutics, 2023).

Data set [1] has as its system HBL100/Dox doxorubicin-resistant mammary epithelial cells. Kind of data set: MTT cytotoxicity assay, HBL100/Dox. The data set is classed as cell-based, human. The settings on record: MTT, 48 h exposure, read-out: IC50 ± SD, HBL100/Dox. Here is the method:
(§1) To characterize the antitumor potential of the resulting Pd(II) pincer complexes, their cytotoxicities against a panel of human solid and hematopoietic cancer cell lines, including colorectal carcinoma (HCT116), breast cancer (MCF7), prostate adenocarcinoma (PC3), glioblastoma (U251), ovarian adenocarcinoma (Scov3), chronic myelogenous leukemia (K562) and its resistant subclone (K562/iS9), multiple plasmacytoma (AMO1), and acute lymphoblastic leukemia (H9) cell lineages, were evaluated using the conventional MTT assay. […] For comparison, the inhibitory effects of the compounds explored on noncancerous human embryonic kidney cells HEK293 as well as transformed breast cells HBL100 and their doxorubicin-resistant analogs HBL100/Dox were also investigated under the same conditions.
(§2) The cytotoxic activity of the compounds explored was investigated on human colorectal carcinoma (HCT116), breast cancer (MCF7), prostate adenocarcinoma (PC3), glioblastoma (U251), ovarian adenocarcinoma (Scov3), chronic myelogenous leukemia (K562 and K562/iS9), multiple plasmacytoma (AMO1), and acute lymphoblastic leukemia (H9) cell lines, as well as human embryonic kidney (HEK293) and mammary epithelial (HBL100 and HBL100/Dox) cells used as representatives of pseudonormal cells. All cell lines were obtained from American Type Culture Collection (ATCC). RPMI-1640 and DMEM media were obtained from Gibco. Fetal bovine serum (FBS) was purchased from HyClone. Cells were cultured in RPMI-1640 or DMEM media supplemented with 10% FBS and 50 μg/mL gentamicin in a humidified incubator with 5% CO2 atmosphere. The cell growth inhibitory effects of the compounds were evaluated using the conventional MTT assay (ICN Biomedicals, Eschwege, Germany). Cells were seeded in triplicate at a cell density of 5 × 10^3/well in 96-well plates in 100 µL complete medium and preincubated for 24 h. The tested compounds were initially dissolved in DMSO. Then, the compounds at various concentrations were added to the media. The well plates were incubated for 48 h followed by addition of MTT solution (Sigma, Darmstadt, Germany) (20 μL, 5 mg/mL). The cells were incubated at 37 °C for further 3 h; then the culture medium was removed, and formazan crystals were dissolved in DMSO (70 μL). The absorbance of the resulting solutions was measured on a multi-well plate reader (Multiskan FC, Thermo scientific) at 530 nm to determine the percentage of surviving cells. The reported values of IC50 are the averages of three independent experiments (Table 2 and Table 3). Cisplatin (in the initial form of an infusion concentrate in natural saline solution) from a commercial source was used as the reference.
A general note: Formazan colour is commonly taken as a measure of viable cells.

Data set [2] concerns Scov3 ovarian adenocarcinoma cells. The data set is described as follows: MTT cytotoxicity assay, Scov3. The data set is classed as cell-based, human. The settings on record: Scov3, compound concentration 80.0 μM, 48 h. Here is the method:
as §1, §2

Data set [3] relates to HBL100 mammary epithelial cells. Kind of data set: MTT cytotoxicity assay, HBL100. The settings on record: 48 h exposure, read-out: IC50 ± SD, HBL100. The data set is classed as cell-based, human. The procedure:
as §1, §2

A short description of data set [4]: UV-vis stability study in DMSO, DMSO–water and DMSO–PBS. The data set is classed as physicochemical. The settings on record: neat DMSO, DMSO–water and DMSO–PBS solutions, over 48 h. The procedure:
The observed dependences correlate well with our previous findings on the lability of the phosphoryl sites in palladocycles 2a,b, 3a,b and can be rationalized in terms of their coordination behavior. […] However, the presence of an additional competitive chloride anion makes complex 2b potentially more susceptible to decoordination of the phosphoryl arm. […] At least the N,N-bidentately bound core remained intact in the mentioned media over a period of 48 h.
The NMR spectra were recorded on Bruker Avance 400 and Avance 500 spectrometers, and the chemical shifts (δ) were referenced internally by the residual (^1H) or deuterated (^13C) solvent signals relative to tetramethylsilane or externally to H3PO4 (^31P) or liquid ammonia (^15N). The ^15N chemical shifts were extracted from the ^1H–^15N HMBC spectra. In all cases, the ^13C{^1H} NMR spectra were registered using the JMODECHO mode; the signals for the C nuclei bearing odd and even numbers of protons had opposite polarities. The NMR peak assignments for ligand 1a and complexes 2a, 3a,b were based on the analysis of ^1H–^1H COSY, ^1H–^13C HSQC, and ^1H–^13C HMBC spectra. The results obtained were used to assign the NMR spectra of the other compounds obtained in this study. For the NMR spectra of the representative compounds, see Figures S1–S9 (1a), S11–S22 (2a), and S24–S35 (3b) in the Supporting Information. […]

The subject of data set [5] is K562/iS9 resistant chronic myelogenous leukemia cells. The data set is described as follows: MTT cytotoxicity assay, K562/iS9. The class given is cell-based, human. The settings on record: 48 h exposure, read-out: IC50 ± SD, K562/iS9. The procedure: as §1, §2
For data set [6], the system named is H9 acute lymphoblastic leukemia cells. Kind of data set: MTT cytotoxicity assay, H9. The settings on record: 48 h exposure, read-out: IC50 ± SD, H9. The class given is cell-based, human. Here is the method: as §1
as §2, with “Then, the compounds at various concentrations were added to the media. The well plates were incubated for 48 h followed by addition of MTT solution (Sigma, Darmstadt, Germany) (20 μL, 5 mg/mL). The cells were incubated at 37 °C for further 3 h; then the culture medium was removed, and formazan crystals were dissolved in DMSO (70 μL).” left out, “The reported values of IC50 are the averages of three independent experiments (Table 2 and Table 3). Cisplatin (in the initial form of an infusion concentrate in natural saline solution) from a commercial source was used as the reference.” left out

For data set [7], the system named is PC3 prostate adenocarcinoma cells. Kind of data set: MTT cytotoxicity assay, PC3. The data set is classed as cell-based, human. The settings on record: 48 h exposure, read-out: IC50 ± SD, PC3. The procedure: as §1, §2
The next data set deals with MCF7 breast cancer cells. Kind of data set: MTT cytotoxicity assay, MCF7. The data set is classed as cell-based, human. The settings on record: MCF7, MTT, 48 h exposure; read-out: IC50 ± SD, MCF7. The procedure:
as §1, §2

The test system of data set [8] is AMO1 multiple plasmacytoma cells. Kind of data set: MTT cytotoxicity assay, AMO1. The class given is cell-based, human. The settings on record: AMO1, MTT, 48 h exposure; read-out: IC50 ± SD, AMO1. The procedure:
as §1, §2

Another data set concerns U251 glioblastoma cells. The data set is described as follows: MTT cytotoxicity assay, U251. The class given is cell-based, human. The settings on record: 48 h exposure, read-out: IC50 ± SD, U251. Here is the method: as §1, §2
For data set [9], the system named is HEK293 embryonic kidney cells. The data set is described as follows: MTT cytotoxicity assay, HEK293. The class given is cell-based, human. The settings on record: HEK293 noncancerous cells, 48 h exposure, read-out: IC50 ± SD, HEK293. The procedure:
as §1, §2

In data set [10] the test system is K562 chronic myelogenous leukemia cells. Kind of data set: MTT cytotoxicity assay, K562. The data set is classed as cell-based, human. The settings on record: 48 h exposure, read-out: IC50 ± SD, K562. Here is the method:
as §1, §2

In data set [11] the test system is HCT116 colorectal carcinoma cells. Kind of data set: MTT cytotoxicity assay, HCT116. The class given is cell-based, human. The settings on record: 48 h exposure, read-out: IC50 ± SD, HCT116. The procedure: as §1, §2

Some results are limits rather than exact numbers.

On to `O=C(c1ccccn1)[N](CP(=O)(c1ccccc1)c1ccccc1)[Pd][Cl]` [complex 3a, [κ^3-O,N,N-(L)Pd(II)Cl]], for which the IC50 in [1] is greater than 80 µM; in data set [3], greater than 80 µM; in data set [5] it was 40 ± 4.5 µM; in [6] it was 23 ± 1 µM; in data set [7], 26 ± 6 µM; in the data set on MCF7 breast cancer cells it was 45 ± 5 µM. Moreover, the IC50 was 32 ± 2 µM in [8]; greater than 80 µM in the data set on U251 glioblastoma cells; 34 ± 3 µM in [9]; 36 ± 4 µM in data set [10]; 36 ± 2 µM in data set [11]. The “percentage of live cells” value in [2] is on record as 30% ^5. The “stability by UV-vis spectroscopy” value in data set [4] was “high stability”.
